This is an account of results in paper PMC7593776 (RSC Medicinal Chemistry, 2020).

This experiment deals with ERK2 (Homo sapiens, UniProt P28482). Briefly: Z′-LYTE kinase inhibition assay. Type of experiment: biochemical. The conditions noted are these: ATP concentration 100 μM.

The structures appear in SMILES notation.

Sequence of ERK2 (P28482 whole entry): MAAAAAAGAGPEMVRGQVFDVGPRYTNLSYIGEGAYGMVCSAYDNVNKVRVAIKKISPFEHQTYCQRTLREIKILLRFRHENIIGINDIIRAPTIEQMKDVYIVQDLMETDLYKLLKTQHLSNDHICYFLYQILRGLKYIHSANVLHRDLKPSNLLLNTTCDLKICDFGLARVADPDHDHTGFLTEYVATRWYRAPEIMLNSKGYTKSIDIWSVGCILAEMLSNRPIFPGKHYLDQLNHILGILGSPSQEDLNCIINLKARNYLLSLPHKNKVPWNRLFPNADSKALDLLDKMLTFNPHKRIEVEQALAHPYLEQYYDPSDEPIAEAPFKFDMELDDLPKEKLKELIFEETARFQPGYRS

`Nc1cccc2cc[nH]c(=O)c12` [MR1]: the “inhibition (in words)” value is listed as “not inhibited”.
